# Biological target: T1, HDM2 (Homo sapiens, UniProt Q00987)
# T1 construct: Thioredoxin (N); made in house; host or cells: E. coli strain BL21(DE3)Rosetta
# Test: HDM2 FRET assay (inhibition of binding of FITC labeled p53-pocket peptide to HDM2)
# Conditions: 0.5 nM HDM2 (residues 17 to 125), 3nM peptide, two hour incubation at room temperature; read-out: FRET IC50
# Summary of the method: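 Final: 0.5 nM His-HDM2, 3 nM FITC peptide, 0.25 nM Tb anti-His Ab; PBS, 0.01% BSA, 0.01% Tween-20; 0.1% DMSO.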
# T1 sequence (Q00987 17-125): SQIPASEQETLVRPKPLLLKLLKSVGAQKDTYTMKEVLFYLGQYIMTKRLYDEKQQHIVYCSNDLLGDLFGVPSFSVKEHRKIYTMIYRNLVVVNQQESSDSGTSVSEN
row,SMILES,IC50 [nM]
1,"Cc1ncc(Cl)cc1-c1nc(-c2noc(=O)[nH]2)nc2nc(N3CCOC[C@H]3c3ccccc3)n(C[C@H]3CC[C@H](C)CC3)c12 [Example 16.158, 3-{6-(5-chloro-2-methylpyridin-3-yl)-7-[(trans-4-methylcyclohexyl)methyl]-8-[(3R)-3-phenylmorpholin-4-yl]-7H-purin-2-yl}-1,2,4-oxadiazol-5(4H)-one]",0.601
2,"Cc1ncc(Cl)cc1-c1nc(-c2n[nH]c(=O)o2)nc2nc(N3CCOC[C@H]3c3ccccc3)n(C[C@H]3CC[C@H](C)CC3)c12 [Example 16.159, 5-{6-(5-chloro-2-methylpyridin-3-yl)-7-[(trans-4-methylcyclohexyl)methyl]-8-[(3R)-3-phenylmorpholin-4-yl]-7H -purin-2-yl}-1,3,4-oxadiazol-2(3H)-one]",0.704
3,"C[C@H]1CC[C@H](Cn2c(N3CCOC[C@H]3c3ccccc3)nc3nc(-c4noc(=O)[nH]4)nc(-c4cc(Cl)cnc4OCc4ccccc4)c32)CC1 [Example 16.161, 3-{6-[2-(benzyloxy)-5-chloropyridin-3-yl]-7-[(trans-4-methylcyclohexyl)methyl]-8-[(3R)-3-phenylmorpholin-4-yl]-7H-purin-2-yl}-1,2,4-oxadiazol-5(4H)-one]",3.65
4,"C[C@H]1CC[C@H](Cn2c(N3CCOC[C@H]3c3ccccc3)nc3nc(-c4noc(=O)[nH]4)nc(-c4cc(Cl)cnc4O)c32)CC1 [Example 16.162, 3-{6-(5-chloro-2-hydroxypyridin-3-yl)-7-[(trans-4-methylcyclohexyl)methyl]-8-[(3R)-3-phenylmorpholin-4-yl]-7H-purin-2-yl}-1,2,4-oxadiazol-5(4H)-one]",0.847
5,"C[C@H]1CC[C@H](Cn2c(N3CCOC[C@H]3c3ccccc3)nc3nc(-c4n[nH]c(=O)o4)nc(-c4cc(Cl)cnc4O)c32)CC1 [Example 16.163, 5-{6-(5-chloro-2-hydroxypyridin-3-yl)-7-[(trans-4-methylcyclohexyl)methyl]-8-[(3R)-3-phenylmorpholin-4-yl]-7H-purin-2-yl} -1,3,4-oxadiazol-2(3H)-one]",1.23
6,"C[C@H]1CC[C@H](Cn2c(N3CCOC[C@H]3c3ccccc3)nc3nc(-c4noc(=O)[nH]4)nc(C4CCCCC4)c32)CC1 [Example 16.165, 3-{6-cyclohexyl-7-[(trans-4-methylcyclohexyl)methyl]-8-[(3R)-3-phenylmorpholin-4-yl]-7H-purin-2-yl}-1,2,4-oxadiazol-5(4H)-one]",5.08
7,"C[C@H]1CC[C@H](Cn2c(N3CCOC[C@H]3c3ccccc3)nc3nc(-c4n[nH]c(=O)o4)nc(C4CCCCC4)c32)CC1 [Example 16.166, 5-{6-cyclohexyl-7-[(trans-4-methylcyclohexyl)methyl]-8-[(3R)-3-phenylmorpholin-4-yl]-7H -purin-2-yl}-1,3,4-oxadiazol-2(3H)-one]",9.22
8,"C[C@H]1CC[C@H](Cn2c(N3CCOC[C@H]3c3ccccc3)nc3nc(-c4noc(=O)[nH]4)nc(C4CCOCC4)c32)CC1 [Example 16.167, 3-{7-[(trans-4-methylcyclohexyl)methyl]-8-[(3R)-3-phenylmorpholin-4-yl]-6-(tetrahydro-2H-pyran-4-yl)-7H-purin-2-yl}-1,2,4-oxadiazol-5(4H)-one]",46.6
9,"C[C@H]1CC[C@H](Cn2c(N3CCOC[C@H]3c3ccccc3)nc3nc(-c4n[nH]c(=O)o4)nc(C4CCOCC4)c32)CC1 [Example 16.168, 5-{7-[(trans-4-methylcyclohexyl)methyl]-8-[(3R)-3-phenylmorpholin-4-yl]-6-(tetrahydro-2H-pyran-4-yl)-7H-purin-2-yl} -1,3,4-oxadiazol-2(3H)-one]",67.1
10,"CC1CCCC(c2nc(-c3noc(=O)[nH]3)nc3nc(N4CCOC[C@H]4c4ccccc4)n(C[C@H]4CC[C@H](C)CC4)c23)C1 (stereo partly drawn) [Example 16.169, 3-{6-(3-methylcyclohexyl)-7-[(trans-4-methylcyclohexyl)methyl]-8-[(3R)-3-phenylmorpholin-4-yl]-7H -purin-2-yl}-1,2,4-oxadiazol-5(4H)-one]",2.53
11,"CC1CCCC(c2nc(-c3n[nH]c(=O)o3)nc3nc(N4CCOC[C@H]4c4ccccc4)n(C[C@H]4CC[C@H](C)CC4)c23)C1 (stereo partly drawn) [Example 16.170, 5-{6-(3-methylcyclohexyl)-7-[(trans-4-methylcyclohexyl)methyl]-8-[(3R)-3-phenylmorpholin-4-yl]-7H-purin-2-yl} - 1,3,4-oxadiazol-2(3H)-one]",8.3
12,"CCOc1nc(C(=O)O)nc2nc(-c3cccc(C)c3)n(Cc3ccc(C(F)(F)F)cc3)c12 [Example 17.1, 6-ethoxy-8-(3-methylphenyl)-7-[4-(trifluoromethyl)benzyl]-7H-purine-2-carboxylic acid]",5900
13,"Cc1cccc(-c2nc3nc(C(=O)O)nc(OCC4CC4)c3n2Cc2ccc(C(F)(F)F)cc2)c1 [Example 17.2, 6-(cyclopropylmethoxy)-8-(3-methylphenyl)-7-[4-(trifluoromethyl)benzyl]-7H-purine-2-carboxylic acid]",814
14,"Cc1cccc(-c2nc3nc(C(=O)O)nc(OCC4CCC4)c3n2Cc2ccc(C(F)(F)F)cc2)c1 [Example 17.3, 6-(cyclobutylmethoxy)-8-(3-methylphenyl)-7-[4-(trifluoromethyl)benzyl]-7H-purine-2-carboxylic acid]",192

# Same assay, conditions: Table 17.2; read-out: FRET IC50
row,SMILES,IC50 [nM]
1,"CC(=O)N1CCN(c2nc3nc(-c4noc(=O)[nH]4)nc(N[C@H](C)C4CCC4)c3n2C[C@H]2CC[C@H](C)CC2)[C@H](C)C1 [Example 17.9, 3-(8-((R)-4-acetyl-2-methylpiperazin-1-yl)-6-(((R)-1-cyclobutylethyl)amino)-7-((trans-4-methylcyclohexyl)methyl)-7H-purin-2-yl)-1,2,4-oxadiazol-5(4H)-one]",2.61
2,"CC(=O)N1CCN(c2nc3nc(-c4noc(=O)[nH]4)nc(N[C@H](C)C4CCC4)c3n2C[C@H]2CC[C@H](C)CC2)[C@H](c2ccccc2)C1 [Example 17.10, 3-{8-[(2R)-4-acetyl-2-phenylpiperazin-1-yl]-6-{[(1R)-1-cyclobutylethyl]amino}-7-[(trans-4-methylcyclohexyl)methyl]-7H-purin-2-yl}-1,2,4-oxadiazol-5(4H)-one]",0.215
3,"CC(=O)N1CCN(c2nc3nc(C(N)=O)nc(N[C@H](C)C4CCC4)c3n2C[C@H]2CC[C@H](C)CC2)[C@H](c2ccccc2)C1 [Example 17.11, 8-[(2R)-4-acetyl-2-phenylpiperazin-1-yl]-6-{[(1R)-1-cyclobutylethyl]amino}-7-[(trans-4-methylcyclohexyl)methyl]-7H-purine-2-carboxamide]",6.33
4,"C[C@@H](Nc1nc(C(N)=O)nc2nc(N3CCN(S(C)(=O)=O)C[C@H]3c3ccccc3)n(C[C@H]3CC[C@H](C)CC3)c12)C1CCC1 [Example 17.12, 6-{[(1R)-1-cyclobutylethyl]amino}-7-[(trans-4-methylcyclohexyl)methyl]-8-[(2R)-4-(methylsulfonyl)-2-phenylpiperazin-1-yl]-7H-purine-2-carboxamide]",4.6
5,"C[C@@H](Nc1nc(-c2noc(=O)[nH]2)nc2nc(N3CCN(S(C)(=O)=O)C[C@H]3c3ccccc3)n(C[C@H]3CC[C@H](C)CC3)c12)C1CCC1 [Example 17.13, 3-(6-{[(1R)-1-cyclobutylethyl]amino}-7-[(trans-4-methylcyclohexyl)methyl]-8-[(2R)-4-(methylsulfonyl)-2-phenylpiperazin-1-yl]-7H-purin-2-yl)-1,2,4-oxadiazol-5(4H)-one]",1.86

# Source: EP2951180B1, “2,6,7,8 SUBSTITUTED PURINES AS HDM2 INHIBITORS” (Merck Sharp & Dohme Corp., priority 2013, dated 2014)
